The source of these data is patent publication US20260265238A1, “COMPOUNDS AND PHARMACEUTICAL COMPOSITIONS THAT DEGRADE SWI/SNF-RELATED MATRIX-ASSOCIATED ACTIN-DEPENDENT REGULATOR OF CHROMATIN SUBFAMILY A” (Plexium, Inc., priority 2023, published 2026).

Assay [1] deals with T1, SMARCA2-HiBiT HeLa cells (protein which is expressed from the SMARCA2 gene) (Homo sapiens, UniProt P51531).
T1 construct: protein which is expressed from the SMARCA2 and SMARCA4 genes; host or cells: HeLa (SMARCA2-HiBiT engineered line)
As to the kind of experiment: SMARCA2 degradation assay (HiBiT-fusion HeLa cell line, 24 h, luminescence). The class given is cell-based. The gist of the method: (§1)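 HiBiT-fusion HeLa lines, 8,000 cells/well, overnight attachment; cpd 10-pt series (typically 10 μM–300 pM), 24 h, 37° C. Lysis with LgBiT + HiBiT substrate, 10 min shaking at RT, luminescence read. DC50 from dose-response fit; % degradation also scored at 1 μM.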
(The HiBiT peptide binds its large partner to form an active luciferase.)

Assay [2] addresses T2, SMARCA4-HiBiT HeLa cells (protein which is expressed from the SMARCA4 gene) (Homo sapiens, UniProt P51532).
T2 construct: protein which is expressed from the SMARCA2 and SMARCA4 genes; host or cells: HeLa (SMARCA4-HiBiT engineered line)
The experiment in a line: SMARCA4 degradation assay (HiBiT-fusion HeLa cell line, 24 h, luminescence). The class given is cell-based. The gist of the method: as §1

T2 sequence (P51532 whole entry): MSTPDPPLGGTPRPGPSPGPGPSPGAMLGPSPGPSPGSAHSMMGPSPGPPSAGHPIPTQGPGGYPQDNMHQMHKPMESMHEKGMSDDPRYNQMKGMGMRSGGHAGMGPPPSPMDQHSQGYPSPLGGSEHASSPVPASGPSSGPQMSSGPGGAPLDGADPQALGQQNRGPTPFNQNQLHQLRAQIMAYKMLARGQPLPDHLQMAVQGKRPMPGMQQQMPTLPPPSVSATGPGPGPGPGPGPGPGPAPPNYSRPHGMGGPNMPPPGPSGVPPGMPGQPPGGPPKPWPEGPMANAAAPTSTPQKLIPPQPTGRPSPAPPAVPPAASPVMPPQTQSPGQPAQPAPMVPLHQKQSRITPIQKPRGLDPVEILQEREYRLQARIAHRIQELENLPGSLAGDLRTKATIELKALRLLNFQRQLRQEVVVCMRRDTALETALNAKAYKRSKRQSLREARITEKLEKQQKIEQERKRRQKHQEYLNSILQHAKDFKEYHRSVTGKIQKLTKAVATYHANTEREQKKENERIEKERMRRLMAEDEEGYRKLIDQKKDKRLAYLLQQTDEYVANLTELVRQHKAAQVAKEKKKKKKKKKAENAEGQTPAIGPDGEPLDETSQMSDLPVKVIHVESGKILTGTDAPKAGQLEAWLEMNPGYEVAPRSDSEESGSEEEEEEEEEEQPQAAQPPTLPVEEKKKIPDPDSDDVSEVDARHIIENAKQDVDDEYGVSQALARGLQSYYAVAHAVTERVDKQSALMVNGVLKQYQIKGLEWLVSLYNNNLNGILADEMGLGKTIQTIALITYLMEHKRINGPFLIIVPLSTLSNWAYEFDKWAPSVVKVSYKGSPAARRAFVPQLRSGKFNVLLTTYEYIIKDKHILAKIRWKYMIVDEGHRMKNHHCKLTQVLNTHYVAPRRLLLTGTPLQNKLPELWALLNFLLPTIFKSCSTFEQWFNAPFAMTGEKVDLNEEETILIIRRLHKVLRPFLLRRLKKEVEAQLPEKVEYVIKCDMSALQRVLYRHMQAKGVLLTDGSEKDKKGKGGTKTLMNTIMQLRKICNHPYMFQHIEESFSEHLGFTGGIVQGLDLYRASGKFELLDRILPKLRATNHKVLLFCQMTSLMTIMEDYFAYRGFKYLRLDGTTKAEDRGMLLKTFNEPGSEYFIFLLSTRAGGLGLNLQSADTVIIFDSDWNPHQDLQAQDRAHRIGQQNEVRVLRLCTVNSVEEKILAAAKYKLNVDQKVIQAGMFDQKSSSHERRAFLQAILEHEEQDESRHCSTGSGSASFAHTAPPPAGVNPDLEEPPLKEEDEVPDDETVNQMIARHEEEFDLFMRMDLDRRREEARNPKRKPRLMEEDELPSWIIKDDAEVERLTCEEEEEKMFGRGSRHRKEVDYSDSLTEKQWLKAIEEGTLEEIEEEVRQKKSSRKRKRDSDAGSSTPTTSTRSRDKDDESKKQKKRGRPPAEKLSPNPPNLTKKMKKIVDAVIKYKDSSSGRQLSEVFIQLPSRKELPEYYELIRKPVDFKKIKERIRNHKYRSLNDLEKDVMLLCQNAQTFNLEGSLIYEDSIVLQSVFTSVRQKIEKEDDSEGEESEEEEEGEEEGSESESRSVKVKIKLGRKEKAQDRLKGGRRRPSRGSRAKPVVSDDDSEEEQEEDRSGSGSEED
T1 sequence (P51531 whole entry): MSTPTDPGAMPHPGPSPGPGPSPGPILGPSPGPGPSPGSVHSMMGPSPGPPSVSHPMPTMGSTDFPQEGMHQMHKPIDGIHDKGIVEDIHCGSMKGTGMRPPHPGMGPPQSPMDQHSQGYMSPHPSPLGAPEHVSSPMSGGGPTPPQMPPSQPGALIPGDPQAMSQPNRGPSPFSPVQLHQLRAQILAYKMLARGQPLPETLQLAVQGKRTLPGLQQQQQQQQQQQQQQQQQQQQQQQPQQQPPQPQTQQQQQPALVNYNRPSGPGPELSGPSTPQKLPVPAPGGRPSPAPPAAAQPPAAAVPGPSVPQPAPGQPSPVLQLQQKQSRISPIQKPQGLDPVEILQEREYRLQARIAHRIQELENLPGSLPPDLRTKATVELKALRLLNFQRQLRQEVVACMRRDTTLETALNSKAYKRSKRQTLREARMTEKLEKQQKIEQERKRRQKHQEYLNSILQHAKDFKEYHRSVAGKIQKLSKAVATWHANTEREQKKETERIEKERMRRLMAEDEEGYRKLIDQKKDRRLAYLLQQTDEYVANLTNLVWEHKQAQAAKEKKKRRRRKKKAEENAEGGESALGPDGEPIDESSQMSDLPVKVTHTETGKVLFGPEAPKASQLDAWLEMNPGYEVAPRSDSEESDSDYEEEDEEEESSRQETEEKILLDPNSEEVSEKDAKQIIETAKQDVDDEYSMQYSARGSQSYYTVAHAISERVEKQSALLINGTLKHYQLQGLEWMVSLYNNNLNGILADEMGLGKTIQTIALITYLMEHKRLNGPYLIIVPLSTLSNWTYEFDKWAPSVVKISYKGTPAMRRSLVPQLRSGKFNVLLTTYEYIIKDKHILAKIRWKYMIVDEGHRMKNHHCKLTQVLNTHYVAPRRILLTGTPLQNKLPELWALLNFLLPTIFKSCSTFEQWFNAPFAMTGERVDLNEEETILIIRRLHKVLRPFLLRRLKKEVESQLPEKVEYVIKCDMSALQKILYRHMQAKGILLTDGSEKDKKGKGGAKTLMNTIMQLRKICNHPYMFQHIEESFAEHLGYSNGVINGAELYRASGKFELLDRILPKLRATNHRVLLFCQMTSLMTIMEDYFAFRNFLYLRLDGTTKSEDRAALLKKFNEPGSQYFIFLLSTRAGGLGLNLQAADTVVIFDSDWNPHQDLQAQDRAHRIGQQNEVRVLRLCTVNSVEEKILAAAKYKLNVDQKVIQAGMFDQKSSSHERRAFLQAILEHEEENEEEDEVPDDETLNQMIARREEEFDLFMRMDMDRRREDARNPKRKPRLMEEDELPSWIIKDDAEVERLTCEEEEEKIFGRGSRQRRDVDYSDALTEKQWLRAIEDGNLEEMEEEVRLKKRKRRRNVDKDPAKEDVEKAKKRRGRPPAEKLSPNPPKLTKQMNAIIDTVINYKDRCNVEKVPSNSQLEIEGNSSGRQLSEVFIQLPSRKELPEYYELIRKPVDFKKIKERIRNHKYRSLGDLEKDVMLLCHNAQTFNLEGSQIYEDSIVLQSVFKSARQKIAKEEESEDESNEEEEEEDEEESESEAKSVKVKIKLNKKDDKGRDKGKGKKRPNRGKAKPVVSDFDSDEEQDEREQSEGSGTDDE

In the case of `C[C@H]1CCN(c2cc(-c3ccccc3O)nnc2N)CCN1c1ccnc(C#CCN(C)CC(F)(F)F)n1` [Compound P-217, o-{5-[(S)-4-(2-{3-[N-methyl(2,2,2-trifluoroethyl)amino]-1-propynyl}-4-pyrimidinyl)-5-methyl-1,4-diazepan-1-yl]-6-amino-3-pyridaziny1}phenol], in assay [1], the DC50 (as a rule, the midpoint of the concentration-degradation curve) was 50 to 500 nM and the “SMARCA2 % Degradation @ 1 μM” value is on record as “++ (++=30-70%)”. In assay [2], the DC50 is 50 to 500 nM and the inhibition – broadly, the drop in the measured response relative to a control, in per cent – at 1 µM was below 30%.
For `C[C@@H]1CCN(c2cc(-c3ccccc3O)nnc2N)CCN1c1ccnc(/C=C/CN(C)C)n1` [Compound P-218, o-{5-[(R)-4-{2-[(E)-3-(dimethylamino)-1-propenyl]-4-pyrimidinyl}-5-methyl-1,4-diazepan-1-yl]-6-amino-3-pyridazinyl}phenol], in assay [1], the DC50 lay in the range of 50 to 500 nM and the “SMARCA2 % Degradation @ 1 μM” value is “+++ (+++=>70%)”. In assay [2], the 50% degradation concentration (DC50) was in the range of 50 to 500 nM and the inhibition at 1 µM fell in the range of 30 to 70%.
For `Nc1nnc(-c2ccccc2O)cc1OC1CC2CN(c3ccnc(C#CCn4ccnc4)n3)CC2C1` (stereo not shown) [Compound P-219, o-[6-amino-5-(3-{2-[3-(1-imidazolyl)-1-propynyl]-4-pyrimidinyl}-3-azabicyclo[3.3.0]oct-7-yloxy)-3-pyridazinyl]phenol], in assay [1], the DC50 was 50 to 500 nM and the “SMARCA2 % Degradation @ 1 μM” value is “+++ (+++=>70%)”. In assay [2], this molecule registered a DC50 of 50 to 500 nM and an inhibition at 1 µM above 70%.
Turning to `Nc1nnc(-c2ccccc2O)cc1OC1CC2CN(c3ccnc(C#CCN4CCOCC4)n3)CC2C1` (stereo not shown) [Compound P-220, o-(6-amino-5-{3-[2-(3-morpholino-1-propynyl)-4-pyrimidinyl]-3-azabicyclo[3.3.0]oct-7-yloxy}-3-pyridazinyl)phenol], in assay [1], the DC50 was 50 to 500 nM and the “SMARCA2 % Degradation @ 1 μM” value is given as “+++ (+++=>70%)”. In assay [2], this molecule displayed a half-maximal degradation concentration (DC50) of 50 to 500 nM and an inhibition at 1 µM of 30 to 70%.
Consider `CC(C)(C)OC(=O)NCC#Cc1nccc(N2CC3CC(Oc4cc(-c5ccccc5O)nnc4N)CC3C2)n1` (stereo not shown) [Compound P-221, 4-(3-{2-[3-(tert-butoxycarbonylamino)-1-propynyl]-4-pyrimidinyl}-3-azabicyclo[3.3.0]oct-7-yloxy)-6-(o-hydroxyphenyl)-3-pyridazinamine], for which, in assay [1], the DC50 was in the range of 50 to 500 nM and the “SMARCA2 % Degradation @ 1 μM” value is given as “+++ (+++=>70%)”. Also, in assay [2], the DC50 was 50 to 500 nM and the inhibition at 1 µM was above 70%.
For `CN(C)CC#Cc1nccc(N2CC3CC(Oc4cc(-c5ccccc5O)nnc4N)CC3C2)n1` (stereo not shown) [Compound P-222, o-[6-amino-5-(3-{2-[3-(dimethylamino)-1-propynyl]-4-pyrimidinyl}-3-azabicyclo[3.3.0]oct-7-yloxy)-3-pyridazinyl]phenol], in assay [1], the DC50 lay within 50 to 500 nM and the “SMARCA2 % Degradation @ 1 μM” value is given as “+++ (+++=>70%)”. Also, in assay [2], the DC50 fell in the range of 50 to 500 nM and the inhibition at 1 µM is above 70%.
As to `C[C@@H]1CCN(c2cc(-c3ccccc3O)nnc2N)CCN1c1ccnc(C#CCN2[C@H](C)C[C@@H]2C)n1` [Compound P-223, o-{5-[(R)-4-(2-{3-[(2R,4S)-2,4-dimethyl-1-azetidinyl]-1-propynyl}-4-pyrimidinyl)-5-methyl-1,4-diazepan-1-y1]-6-amino-3-pyridazinyl}phenol], in assay [1], the DC50 was below 50 nM and the “SMARCA2 % Degradation @ 1 μM” value is given as “++ (++=30-70%)”. Also, in assay [2], the DC50 is below 50 nM and the inhibition at 1 µM lay within 30 to 70%.
In the case of `Nc1nnc(-c2ccccc2O)cc1N1CC2CCC(C1)N2c1nc(C#CCn2ccnc2)ncc1F` [Compound P-224, o-[6-amino-5-(8-{5-fluoro-2-[3-(1-imidazolyl)-1-propynyl]-4-pyrimidinyl}-3,8-diazabicyclo[3.2.1]oct-3-yl)-3-pyridazinyl]phenol], in assay [1], the 50% degradation concentration (DC50) was 50 to 500 nM and the “SMARCA2 % Degradation @ 1 μM” value was “+++ (+++=>70%)”. In assay [2], the DC50 lay in the range of 50 to 500 nM and the inhibition at 1 µM is above 70%.
Regarding `CN(C)CC#Cc1ncc(F)c(N2C3CCC2CN(c2cc(-c4ccccc4O)nnc2N)C3)n1` [Compound P-225, o-[6-amino-5-(8-{2-[3-(dimethylamino)-1-propynyl]-5-fluoro-4-pyrimidinyl}-3,8-diazabicyclo[3.2.1]oct-3-yl)-3-pyridazinyl]phenol], in assay [1], the DC50 is below 50 nM and the “SMARCA2 % Degradation @ 1 μM” value is “++ (++=30-70%)”. In assay [2], this molecule yielded a DC50 below 50 nM and an inhibition at 1 µM of 30 to 70%.
As for `C[C@@H]1CCN(c2cc(-c3ccccc3O)nnc2N)CCN1c1nc(C#CCN(C)C)ncc1F` [Compound P-226, o-{5-[(R)-4-{2-[3-(dimethylamino)-1-propynyl]-5-fluoro-4-pyrimidinyl}-5-mcthyl-1,4-diazcpan-1-yl]-6-amino-3-pyridazinyl}phenol], in assay [1], the DC50 is below 50 nM and the “SMARCA2 % Degradation @ 1 μM” value is given as “++ (++=30-70%)”. Also, in assay [2], the DC50 was below 50 nM and the inhibition at 1 µM was below 30%.
On to `Cc1cnc(C#CCn2ccnc2)nc1N1CCN(c2cc(-c3ccccc3O)nnc2N)CC[C@H]1C` [Compound P-227, o-{5-[(R)-4-{2-[3-(1-imidazolyl)-1-propynyl]-5-methyl-4-pyrimidinyl}-5-methyl-1,4-diazepan-1-yl]-6-amino-3-pyridaziny1} phenol], for which, in assay [1], the DC50 fell in the range of 50 to 500 nM and the “SMARCA2 % Degradation @ 1 μM” value is “+++ (+++=>70%)”. In assay [2], the DC50 is 50 to 500 nM and the inhibition at 1 µM is 30 to 70%.
Take `C[C@@H]1CCN(c2cc(-c3ccccc3O)nnc2N)CCN1c1ccnc(C#CCN2C3CCCC2CC3)n1` [Compound P-228, o-{5-[(R)-4-(2-{3-(8-azabicyclo[3.2.1]oct-8-yl)-1-propynyl}-4-pyrimidinyl)-5-methyl-1,4-diazepan-1-y1]-6-amino-3-pyridazinyl}phenol]: in assay [1], the DC50 was below 50 nM and the “SMARCA2 % Degradation @ 1 μM” value is given as “++ (++=30-70%)”. In assay [2], this molecule showed a half-maximal degradation concentration (DC50) below 50 nM and an inhibition at 1 µM of 30 to 70%.
On to `Cc1cnc(C#CCN(C)C)nc1N1CCN(c2cc(-c3ccccc3O)nnc2N)CC[C@H]1C` [Compound P-229, o-{5-[(R)-4-{2-[3-(dimethylamino)-1-propynyl]-5-methyl-4-pyrimidinyl}-5-methyl-1,4-diazepan-1-yl]-6-amino-3-pyridaziny1}phenol], for which, in assay [1], the DC50 is below 50 nM and the “SMARCA2 % Degradation @ 1 μM” value is “+++ (+++=>70%)”. In assay [2], this molecule gave a half-maximal degradation concentration (DC50) of 50 to 500 nM and an inhibition at 1 µM of 30 to 70%.
For `C[C@@H]1CCN(c2cc(-c3ccccc3O)nnc2N)CCN1c1ccnc(C#CCN2CC(F)C2)n1` [Compound P-230, o-{5-[(R)-4-{2-[3-(3-fluoro-1-azetidinyl)-1-propynyl]-4-pyrimidinyl}-5-methyl-1,4-diazepan-1-y1]-6-amino-3-pyridaziny1}phenol], in that order: 50 to 500 nM, “++ (++=30-70%)”, 50 to 500 nM and below 30%.
On to `C[C@@H]1CCN(c2cc(-c3ccccc3O)nnc2N)CCN1c1ccnc(C#CC2CCCCN2C)n1` (stereo partly drawn) [Compound P-231, o-{5-[(R)-5-methyl-4-{2-[2-(1-methyl-2-piperidyl)ethynyl]-4-pyrimidinyl}-1,4-diazepan-1-yl]-6-amino-3-pyridaziny1} phenol], for which, in assay [1], the DC50 is below 50 nM and the “SMARCA2 % Degradation @ 1 μM” value was “++ (++=30-70%)”. In assay [2], this molecule yielded a DC50 below 50 nM and an inhibition at 1 µM of 30 to 70%.
As to `C[C@@H]1CCCN1CC#Cc1nccc(N2CCN(c3cc(-c4ccccc4O)nnc3N)CC[C@H]2C)n1` [Compound P-232, o-{5-[(R)-4-(2-{3-[(R)-2-methyl-1-pyrrolidinyl]-1-propynyl}-4-pyrimidinyl)-5-methyl-1,4-diazepan-1-yl]-6-amino-3-pyridazinyl}phenol], in assay [1], the 50% degradation concentration (DC50) is below 50 nM and the “SMARCA2 % Degradation @ 1 μM” value is “+++ (+++=>70%)”. Also, in assay [2], the DC50 was below 50 nM and the inhibition at 1 µM lay in the range of 30 to 70%.
Take `C[C@@H]1CCN(c2cc(-c3ccccc3O)nnc2N)CCN1c1ccnc(C#CCN2CCC[C@@H]2C)n1` [Compound P-233, o-{5-[(R)-4-(2-{3-[(S)-2-methyl-1-pyrrolidinyl]-1-propynyl}-4-pyrimidinyl)-5-methyl-1,4-diazepan-1-yl]-6-amino-3-pyridazinyl} phenol]: in assay [1], the DC50 was below 50 nM and the “SMARCA2 % Degradation @ 1 μM” value was “++ (++=30-70%)”. In assay [2], this molecule showed a 50% degradation concentration (DC50) below 50 nM and an inhibition at 1 µM of 30 to 70%.
In the case of `C[C@@H]1CCN(c2cc(-c3ccccc3O)nnc2N)CCN1c1ccnc(C#CCN2CC3CC2C3)n1` [Compound P-234, o-{5-[(R)-4-(2-{3-(2-azabicyclo[2.1.1]hex-2-yl)-1-propynyl}-4-pyrimidinyl)-5-methyl-1,4-diazepan-1-yl]-6-amino-3-pyridazinyl}phenol], in assay [1], the DC50 was below 50 nM and the “SMARCA2 % Degradation @ 1 μM” value was “+++ (+++=>70%)”. In assay [2], the DC50 was below 50 nM and the inhibition at 1 µM was in the range of 30 to 70%.
As to `Cc1nn2ccn(CC#Cc3nccc(N4CCN(c5cnnc(-c6ccccc6O)c5)CC[C@H]4C)n3)c(=O)c2c1C` [Compound P-235, 5-[3-(4-{ (R)-4-[6-(o-hydroxyphenyl)-4-pyridaziny1]-7-methyl-1,4-diazepan-1-yl}-2-pyrimidinyl)-2-propynyl]-2,3-dimethyl-1,5,7a-triaza-4(5H)-indenone], in assay [1], the DC50 fell in the range of 50 to 500 nM and the “SMARCA2 % Degradation @ 1 μM” value is reported as “+ (+=<30%)”. In addition, in assay [2], the DC50 fell in the range of 500 to 5000 nM and the inhibition at 1 µM was below 30%.
